Reference: patent US4533665A, “[[Bis(aryl)methylene]-1-piperidinyl]alkyl-pyrimidinones” (Janssen Pharmaceutica, priority 1984, dated 1985)
Where a name gives a salt, the structure may show the parent alone.

Each molecule was assayed against T1, S2-receptor (Rattus norvegicus, UniProt P14842) (assay: antagonistic activity on the effect of serotonin on the caudal artery of the rat (caudal artery test)). Settings: rat caudal artery strips; serotonin 40 ng/ml; 5 minutes after adding the drug; read-out: ED50 (minimal concentration which reduces the amplitude of the serotonin-induced contraction to at least 50% of its normal value) (converted).
T1 construct: Caudal arteries from fasted male rats; from tissue; host or cells: rat caudal artery, helical strips
T1 sequence (P14842 whole entry): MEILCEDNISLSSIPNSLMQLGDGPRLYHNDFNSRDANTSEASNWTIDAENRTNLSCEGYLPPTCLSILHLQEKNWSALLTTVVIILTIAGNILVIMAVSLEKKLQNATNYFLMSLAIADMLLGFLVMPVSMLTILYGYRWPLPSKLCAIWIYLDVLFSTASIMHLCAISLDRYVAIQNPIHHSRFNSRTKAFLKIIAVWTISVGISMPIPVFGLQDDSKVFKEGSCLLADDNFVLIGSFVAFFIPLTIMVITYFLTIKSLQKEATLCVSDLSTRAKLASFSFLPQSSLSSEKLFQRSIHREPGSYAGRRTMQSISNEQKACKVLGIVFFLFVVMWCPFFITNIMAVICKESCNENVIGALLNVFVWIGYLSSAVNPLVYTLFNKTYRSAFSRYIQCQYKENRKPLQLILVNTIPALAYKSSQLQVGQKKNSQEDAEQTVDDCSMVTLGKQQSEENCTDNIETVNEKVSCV
Experimental: ANTAGONISTIC ACTIVITY ON THE EFFECT OF SEROTONIN ON THE CAUDAL ARTERY OF THE RAT
Caudal arteries from fasted male rats (210-235 g) were used in the test. […] Submaximal contractions of the arterial strips were produced by adding single doses of serotonin (40 ng/ml) to the organ bath for 2 minutes with each time an interval of 10 minutes. The amplitude of the contraction was measured before and 5 minutes after adding the drug. After washing out, the agonist was added again three times in order to see whether the contraction was restored and normalized. […] In this connection the ED50 -values are the minimal concentrations of the concerned drugs which reduce the amplitude of the contraction to at least 50% of its normal value.

Row | IC50 | Structure (SMILES)
1 | 0.678 pM | Cc1ccc(C(=C2CCN(CCc3c(C)nc4n(c3=O)CCCS4)CC2)c2ccccc2)cc1 [Compound 128]
2 | 0.49 pM | Cc1ccc(C(=C2CCN(CCc3c(C)nc4scc(C)n4c3=O)CC2)c2ccccc2)cc1 [Compound 129]
3 | 0.175 pM | Cc1ccc(C(=C2CCN(CCc3c(C)nc4n(c3=O)CCS4)CC2)c2ccccc2)cc1 [Compound 130]
4 | 2.45 pM | Cc1nc2n(c(=O)c1CCN1CCC(=C(c3ccccc3)c3ccc(F)cc3)CC1)CCCC2 [Compound 137, 3-[2-[4-[(4-fluorophenyl)phenylmethylene]-1-piperidinyl]ethyl]-6,7,8,9-tetrahydro-2-methyl-4H-pyrido[1,2-a]pyrimidin-4-one dihydrochloride]
5 | 2.65 pM | Cc1cccc(C(=C2CCN(CCc3c(C)nc4n(c3=O)CCCC4)CC2)c2ccc(F)cc2)c1 [Compound 138, 3-[2-[4-[(4-fluorophenyl)(3-methylphenyl)methylene]-1-piperidinyl]ethyl]-6,7,8,9-tetrahydro-2-methyl-4H-pyrido[1,2-a]pyrimidin-4-one]
6 | 0.323 pM | Cc1nc2sccn2c(=O)c1CCN1CCC(=C(c2ccccc2)c2ccc(F)cc2)CC1 [Compound 139, 6-[2-[4-[(4-fluorophenyl)phenylmethylene]-1-piperidinyl]ethyl]-7-methyl-5H-thiazolo[3,2-a]pyrimidin-5-one monohydrochloride]
7 | 2.09 pM | Cc1nc2n(c(=O)c1CCN1CCC(=C(c3ccc(F)cc3)c3cccc(C(F)(F)F)c3)CC1)CCCC2 [Compound 140, 3-[2-[4-[(4-fluorophenyl)[3-(trifluoromethyl)phenyl]methylene]-1-piperidinyl]ethyl]-6,7,8,9-tetrahydro-2-methyl-4H-pyrido[1,2-a]pyrimidin-4-one dihydrochloride]
8 | 1.46 pM | Cc1nc2ccc(N)cn2c(=O)c1CCN1CCC(=C(c2ccc(F)cc2)c2ccc(F)cc2)CC1 [Compound 141, 7-amino-3-[2-[4-[bis(4-fluorophenyl)methylene]-1-piperidinyl]ethyl]-2-methyl-4H-pyrido[1,2-a]-pyrimidin-4-one]
9 | 1.11 pM | COc1ccc(C(=C2CCN(CCc3c(C)nc4scc(C)n4c3=O)CC2)c2ccc(F)cc2)cc1 [Compound 142, 6-[2-[4-[(4-fluorophenyl)(4-methoxyphenyl)methylene]-1-piperidinyl]ethyl]-3,7-dimethyl-5H-thiazolo[3,2-a]pyrimidin-5-one]
10 | 1.3 pM | COc1ccc(C(=C2CCN(CCc3c(C)nc4ccccn4c3=O)CC2)c2ccc(F)cc2)cc1 [Compound 143, 3-[2-[4-[(4-fluorophenyl)(4-methoxyphenyl)methylene]-1-piperidinyl]ethyl]-2-methyl-4H-pyrido[1,2-a]pyrimidin-4-one dihydrochloride.monohydrate]
11 | 1.06 pM | COc1ccc(C(=C2CCN(CCc3c(C)nc4sccn4c3=O)CC2)c2ccc(F)cc2)cc1 [Compound 144, 6-[2-[4-[(4-fluorophenyl)(4-methoxyphenyl)methylene]-1-piperidinyl]ethyl]-7-methyl-5H-thiazolo[3,2-a]pyrimidin-5-one monohydrochloride]
12 | 2.25 pM | COc1ccc(C(=C2CCN(CCc3c(C)nc4n(c3=O)CCCS4)CC2)c2ccc(F)cc2)cc1 [Compound 145, 7-[2-[4-[(4-fluorophenyl)(4-methoxyphenyl)methylene]-1-piperidinyl]ethyl]-3,4-dihydro-8-methyl-2H,6H-pyrimido[2,1-b][1,3]thiazin-6-one dihydrochloride]
13 | 2.32 pM | COc1ccc(C(=C2CCN(CCc3c(C)nc4n(c3=O)CCCC4)CC2)c2ccc(F)cc2)cc1 [Compound 146, 3-[2-[4-[(4-fluorophenyl)(4-methoxyphenyl)methylene]-1-piperidinyl]ethyl]-6,7,8,9-tetrahydro-2-methyl-4H-pyrido[1,2-a]pyrimidin-4-one dihydrochloride]

The next lines start with the molecule.

Row | Structure (SMILES) | IC50
14 | Cc1ccccc1C(=C1CCN(CCc2c(C)nc3n(c2=O)CCCC3)CC1)c1ccccc1 [Compound 92] | 0.705 pM
15 | Cc1nc2n(c(=O)c1CCN1CCC(=C(c3ccccc3)c3ccccc3)CC1)CCCS2 [Compound 104, 7-[2-[4-(diphenylmethylene)-1-piperidinyl]ethyl]-3,4-dihydro-8-methyl-2H,6H-pyrimido[2,1-b][1,3]-thiazin-6-one] | 0.699 pM
16 | Cc1nc2scc(C)n2c(=O)c1CCN1CCC(=C(c2ccccc2)c2ccccc2)CC1 [Compound 105, 6-[2-[4-(diphenylmethylene)-1-piperidinyl]ethyl]-3,7-dimethyl-5H-thiazolo[3,2-a]pyrimidin-5-one] | 0.702 pM
17 | Cc1nc2n(c(=O)c1CCN1CCC(=C(c3ccccc3)c3ccccc3)CC1)CCS2 [Compound 107, 6-[2-[4-(diphenylmethylene)-1-piperidinyl]ethyl]-2,3-dihydro-7-methyl-5H-thiazolo[3,2-a]pyrimidin-5-one dihydrochloride] | 1.08 pM
18 | Cc1ccc(C(=C2CCN(CCc3c(C)nc4n(c3=O)CCCS4)CC2)c2ccc(C)cc2)cc1 [Compound 108, 7-[2-[4-[bis(4-methylphenyl)methylene]-1-piperidinyl]ethyl]-3,4-dihydro-8-methyl-2H,6H-pyrimido[2,1-b][1,3]thiazin-6-one] | 2.68 pM
19 | Cc1nc2n(c(=O)c1CCN1CCC(=C(c3ccc(Cl)cc3)c3ccc(Cl)cc3)CC1)CCS2 [Compound 110, 6-[2-[4-[bis(4-chlorophenyl)methylene]-1-piperidinyl]ethyl]-2,3-dihydro-7-methyl-5H-thiazolo[3,2-a]pyrimidin-5-one] | 2.54 pM
20 | Cc1nc2scc(C)n2c(=O)c1CCN1CCC(=C(c2ccc(F)cc2)c2ccc(F)cc2)CC1 [Compound 112, 6-[2-[4-[bis(4-fluorophenyl)methylene]-1-piperidinyl]ethyl]-3,7-dimethyl-5H-thiazolo[3,2-a]pyrimidin-5-one] | 0.651 pM
21 | Cc1nc2n(c(=O)c1CCN1CCC(=C(c3ccc(F)cc3)c3ccc(F)cc3)CC1)CCS2 [Compound 113] | 1.17 pM
22 | Cc1nc2n(c(=O)c1CCN1CCC(=C(c3ccc(F)cc3)c3ccc(F)cc3)CC1)CCCS2 [Compound 114] | 1.13 pM
23 | Cc1nc2n(c(=O)c1CCN1CCC(=C(c3ccccc3)c3ccc(F)cc3)CC1)CCCS2 [Compound 115] | 2.73 pM
24 | Cc1nc2n(c(=O)c1CCN1CCC(=C(c3ccccc3)c3ccc(F)cc3)CC1)CCS2 [Compound 116] | 2.82 pM
25 | Cc1nc2scc(C)n2c(=O)c1CCN1CCC(=C(c2ccccc2)c2ccc(F)cc2)CC1 [Compound 117] | < 1.33 pM
26 | Cc1nc2n(c(=O)c1CCN1CCC(=C(c3ccc(F)cc3)c3cccc(C(F)(F)F)c3)CC1)CCS2 [Compound 118] | 2.36 pM
27 | Cc1nc2scc(C)n2c(=O)c1CCN1CCC(=C(c2ccc(F)cc2)c2cccc(C(F)(F)F)c2)CC1 [Compound 119] | 2.31 pM
28 | Cc1nc2n(c(=O)c1CCN1CCC(=C(c3ccc(F)cc3)c3cccc(C(F)(F)F)c3)CC1)CCCS2 [Compound 120] | 1.03 pM
29 | Cc1cccc(C(=C2CCN(CCc3c(C)nc4n(c3=O)CCCS4)CC2)c2ccc(F)cc2)c1 [Compound 121] | 2.65 pM
30 | Cc1cccc(C(=C2CCN(CCc3c(C)nc4scc(C)n4c3=O)CC2)c2ccc(F)cc2)c1 [Compound 122] | 0.656 pM
31 | Cc1cccc(C(=C2CCN(CCc3c(C)nc4n(c3=O)CCCS4)CC2)c2ccc(F)cc2)c1 [Compound 123] | 0.654 pM
32 | Cc1nc2scc(C)n2c(=O)c1CCN1CCC(=C(c2ccc(F)cc2)c2cccnc2)CC1 [Compound 124] | 2.74 pM
33 | Cc1nc2sc(C)c(C)n2c(=O)c1CCN1CCC(=C(c2ccc(F)cc2)c2ccc(F)cc2)CC1 [Compound 127] | 0.633 pM
